Broadly, the IC50 is the point on the concentration scale where inhibition reaches its midpoint. A word on the Kp: it is tissue or fluid exposure divided by exposure in the circulation.

For 13 compounds, IC50, Kp and concentration results are on record in patent US7998993B2, “TRPV1 antagonists” (Abbott Laboratories, priority 2007, dated 2011).

Each structure is given as a SMILES string. Read-outs that look alike come from different tables or passages of the source.

Data set [1] deals with T1, human TRPV1 receptor (Homo sapiens, UniProt Q8NER1).
T1 construct: expressed in transfected cells
The experiment in a line: Ca2+ influx assay (FLIPR, Fluo-4 AM) with capsaicin challenge in 1321N1 cells expressing recombinant TRPV1. The data set is classed as cell-based. The following applies: inhibition of 0.05 μM capsaicin response, hTRPV1 in 1321N1 human astrocytoma cells. On the procedure:
Dulbecco's modified Eagle medium (D-MEM) (with 4.5 mg/mL glucose) and fetal bovine serum were obtained from Hyclone Laboratories, Inc. (Logan, Utah). Dulbecco's phosphate-buffered saline (D-PBS) (with 1 mg/mL glucose and 3.6 mg/l Na pyruvate, without phenol red), L-glutamine, hygromycin B, and Lipofectamine® were obtained from Life Technologies (Grand Island, N.Y.). G418 sulfate was obtained from Calbiochem-Novabiochem Corp. (San Diego, Calif.). Capsaicin (8-methyl-N-vanillyl-6-nonenamide) was obtained from Sigma-Aldrich, Co. (St. Louis, Mo.). Fluo-4 AM (N-[4-[6-[(acetyloxy)methoxy]-2,7-difluoro-3-oxo-3H-xanthen-9-yl]-2-[2-[2-[bis[2-[(acetyloxy)methoxy]-2-oxyethyl]amino]-5-methy lphenoxy]ethoxy]phenyl]-N-[2-[(acetyloxy)methoxy]-2-oxyethyl]-glycine, (acetyloxy)methyl ester) was purchased from Molecular Probes (Eugene, Oreg.).
The cDNAs for the human TRPV1 receptor were isolated by reverse transcriptase-polymerase chain reaction (RT-PCR) from human small intestine poly A+RNA supplied by Clontech (Palo Alto, Calif.) using primers designed surrounding the initiation and termination codons identical to the published sequences (Hayes et al. Pain Vol. 88 pages 205-215, 2000). The resulting cDNA PCR products were subcloned into pCIneo mammalian expression vector (Promega) and fully sequenced using fluorescent dye-terminator reagents (Prism, Perkin-Elmer Applied Biosystems Division) and a Perkin-Elmer Applied Biosystems Model 373 DNA sequencer or Model 310 genetic analyzer. Expression plasmids encoding the hTRPV1 cDNA were transfected individually into 1321N1 human astrocytoma cells using Lipofectamine®. Forty-eight hours after transfection, the neomycin-resistant cells were selected with growth medium containing 800 μg/mL Geneticin (Gibco BRL). Surviving individual colonies were isolated and screened for TRPV1 receptor activity. Cells expressing recombinant homomeric TRPV1 receptors were maintained at 37° C. in D-MEM containing 4 mM L-glutamine, 300 μg/mL G418 (Cal-biochem) and 10% fetal bovine serum under a humidified 5% CO2 atmosphere.
The functional activity of compounds at the TRPV1 receptor was determined with a Ca^2+ influx assay and measurement of intracellular Ca^2+ levels ([Ca^2+]i). All compounds were tested over an 11-point half-log concentration range. Compound solutions were prepared in D-PBS (4× final concentration), and diluted serially across 96-well v-bottom tissue culture plates using a Biomek 2000 robotic automation workstation (Beckman-Coulter, Inc., Fullerton, Calif.). A 0.2 μM solution of the TRPV1 agonist capsaicin was also prepared in D-PBS. The fluorescent Ca^2+ chelating dye Fluo-4 AM was used as an indicator of the relative levels of [Ca^2+]i in a 96-well format using a Fluorescence Imaging Plate Reader (FLIPR)(Molecular Devices, Sunnyvale, Calif.). Cells were grown to confluency in 96-well black-walled tissue culture plates. Then, prior to the assay, the cells were loaded with 100 μL per well of Fluo-4 AM (2 μM, in D-PBS) for 1-2 hours at 23° C. Washing of the cells was performed to remove extracellular Fluo-4 AM (2×1 mL D-PBS per well), and afterward, the cells were placed in the reading chamber of the FLIPR instrument. 50 μL of the compound solutions were added to the cells at the 10 second time mark of the experimental run. Then, after a 3-minute time delay, 50 μL of the capsaicin solution was added at the, 190 seconds time mark (0.05 μM final concentration)([…]) to challenge the TRPV1 receptor. Time length of the experimental run was 240 seconds. Fluorescence readings were made at 1 to 5 second intervals over the course of the experimental run. The peak increase in relative fluorescence units (minus baseline) was calculated from the 190 seconds time mark to the end of the experimental run, and expressed as a percentage of the 0.05 μM capsaicin (control) response.

Data set [2] is described as follows: Plasma and brain concentrations in rats after an oral dose. Type of data set: in vivo. The following applies: rat, fasted male Sprague-Dawley rats, two hours after dosing; for Kp at 2 h: brain/plasma. On the procedure:
The compounds were prepared as a solution in a 10% DMSO/poly(ethylene glycol)-400 (v/v). Blood and brain samples were obtained from each animal two hours after dosing.
Rat brain tissue was homogenized with two parts water (by weight). Test compound was selectively extracted from plasma and brain homogenate using liquid-liquid extraction with tert-butylmethylether. The compounds of interest were separated from co-extracted contaminants on a 50×3 mm, Luna CN column (Phenomenex), with an acetonitrile:0.1% aqueous trifluoroacetic acid mobile phase at a flow rate of 0.35 ml/min. Plasma and tissue concentrations were determined by HPLC-MS/MS on an API2000 with Turbo Ion Spray interface, with MRM detection in the positive ionization mode. To calibrate compound concentration, a separate portion of each tissue sample was spiked with a known quantity of test compound and analyzed simultaneously with the samples.

[3] abbreviates: brain, 30 μmol/kg oral, read-out: [Brain].
[4] abbreviates: plasma, 30 μmol/kg oral, read-out: [Plasma].
[5] abbreviates: brain, 10 μmol/kg PO, read-out: [Brain].
The mark [6] stands for this setting: plasma, 10 μmol/kg PO, read-out: [Plasma].

T1 sequence (Q8NER1 whole entry): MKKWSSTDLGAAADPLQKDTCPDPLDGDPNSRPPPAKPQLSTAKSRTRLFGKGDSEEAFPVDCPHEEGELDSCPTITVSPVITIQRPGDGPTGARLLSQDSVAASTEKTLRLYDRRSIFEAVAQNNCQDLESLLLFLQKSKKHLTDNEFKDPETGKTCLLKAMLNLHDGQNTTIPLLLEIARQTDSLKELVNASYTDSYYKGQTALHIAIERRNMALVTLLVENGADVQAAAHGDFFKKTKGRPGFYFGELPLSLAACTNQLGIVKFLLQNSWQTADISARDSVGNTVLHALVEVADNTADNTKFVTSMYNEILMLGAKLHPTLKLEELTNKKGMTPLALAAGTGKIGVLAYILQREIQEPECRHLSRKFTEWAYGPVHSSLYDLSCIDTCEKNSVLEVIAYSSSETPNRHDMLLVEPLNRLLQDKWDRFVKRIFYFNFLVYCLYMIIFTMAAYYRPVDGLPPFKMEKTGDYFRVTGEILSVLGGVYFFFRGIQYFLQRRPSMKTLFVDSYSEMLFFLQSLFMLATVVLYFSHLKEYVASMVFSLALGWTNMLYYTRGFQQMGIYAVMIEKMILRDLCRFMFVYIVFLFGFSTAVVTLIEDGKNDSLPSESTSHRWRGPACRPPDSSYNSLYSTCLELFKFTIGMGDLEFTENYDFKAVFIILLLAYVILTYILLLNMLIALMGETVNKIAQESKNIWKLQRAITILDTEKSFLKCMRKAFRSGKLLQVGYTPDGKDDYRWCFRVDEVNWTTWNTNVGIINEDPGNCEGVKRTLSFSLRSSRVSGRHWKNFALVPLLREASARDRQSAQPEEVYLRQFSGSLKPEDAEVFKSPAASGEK

Take `Cc1nc(Nc2cccc3c2CC(O)CC3)oc1-c1ccc(C(F)(F)F)cc1F` (stereo not drawn) [Compound 5, 8-({5-[2-fluoro-4-(trifluoromethyl)phenyl]-4-methyl-1,3-oxazol-2-yl}amino)-1,2,3,4-tetrahydronaphthalen-2-ol]: in data set [1], the IC50 came to 43 nM. The Kp at 2 h in data set [2] (30 μmol/kg oral) was found to be 3. Further, the concentration at 2 h in data set [2] (setting [3]) amounted to 660 ng/g; in data set [2] (setting [4]), 210 ng/mL.

Regarding `Cc1nc(Nc2cccc3c2CC(O)CC3)oc1-c1ccc(C(F)(F)F)c(F)c1F` (stereo not drawn) [Compound 6, 8-({5-[2,3-difluoro-4-(trifluoromethyl)phenyl]-4-methyl-1,3-oxazol-2-yl}amino)-1,2,3,4-tetrahydronaphthalen-2-ol], the IC50 in data set [1] was 62 nM. In addition, the Kp at 2 h in data set [2] (30 μmol/kg oral) worked out at 1.7. Moreover, the concentration at 2 h in data set [2] (setting [3]) was 230 ng/g; in data set [2] (setting [4]) it was 130 ng/mL.

For the compound `Cc1nc(Nc2cccc3c2CC(O)CC3)oc1-c1ccc(OC(F)(F)F)cc1` (stereo not drawn) [Compound 9, 8-({4-methyl-5-[4-(trifluoromethoxy)phenyl]-1,3-oxazol-2-yl}amino)-1,2,3,4-tetrahydronaphthalen-2-ol], the IC50 in data set [1] worked out at 184 nM. Moreover, the Kp at 2 h in data set [2] (30 μmol/kg oral) came to 4. Besides, the concentration at 2 h in data set [2] (setting [3]) was 2100 ng/g; in data set [2] (setting [4]), 510 ng/mL.

`Cc1nc(Nc2cccc3c2CC(O)CC3)oc1-c1ccc(C(F)(F)F)cc1` (stereo not drawn) [Compound 12, 8-({4-methyl-5-[4-(trifluoromethyl)phenyl]-1,3-oxazol-2-yl}amino)-1,2,3,4-tetrahydronaphthalen-2-ol] came in with a Kp at 2 h in data set [2] (30 μmol/kg oral) of 6.3. The concentration at 2 h in data set [2] (setting [3]) worked out at 3300 ng/g; in data set [2] (setting [4]), 490 ng/mL.

`Cc1nc(Nc2cccc3c2CC(O)CC3)oc1-c1ccc(Cl)cc1` (stereo not drawn) [Compound 13, 8-{[5-(4-chlorophenyl)-4-methyl-1,3-oxazol-2-yl]amino}-1,2,3,4-tetrahydronaphthalen-2-ol]: in data set [1], the IC50 came to 108 nM. The compound also came in with a Kp at 2 h in data set [2] (30 μmol/kg oral) of 5.6. For the same compound, the figures for the concentration at 2 h in data set [2] (setting [3]) and in data set [2] (setting [4]) were 600 ng/g and 93 ng/mL, respectively.

In the case of `Cc1nc(Nc2cccc3c2CC(O)CC3)oc1-c1ccc(C#N)cc1` (stereo not drawn) [Compound 15, 4-{2-[(7-hydroxy-5,6,7,8-tetrahydronaphthalen-1-yl)amino]-4-methyl-1,3-oxazol-5-yl}benzonitrile], in data set [1], the IC50 is 36 nM. The Kp at 2 h in data set [2] (30 μmol/kg oral) came out at 1.3. The concentration at 2 h in data set [2] (setting [3]) was 310 ng/g; in data set [2] (setting [4]) it was 250 ng/mL.

On to `Cc1nc(Nc2cccc3c2CC(O)CC3)oc1-c1ccc(C(F)(F)F)o1` (stereo not drawn) [Compound 31, 8-({4-methyl-5-[5-(trifluoromethyl)-2-furyl]-1,3-oxazol-2-yl}amino)-1,2,3,4-tetrahydronaphthalen-2-ol], for which the IC50 in data set [1] was 703 nM. In data set [2] (10 μmol/kg PO), this compound registered a Kp at 2 h of 1.3. Further, the concentration at 2 h in data set [2] (setting [5]) stood at 50 ng/g; in data set [2] (setting [6]), 40 ng/mL.

Take `C=C(C)[C@H]1CC=C(c2oc(Nc3cccc4c3CC(O)CC4)nc2C)CC1` (stereo partly drawn) [Compound 32, 8-({5-[(4R)-4-isopropenylcyclohex-1-en-1-yl]-4-methyl-1,3-oxazol-2-yl}amino)-1,2,3,4-tetrahydronaphthalen-2-ol]: the IC50 in data set [1] came out at 395 nM. Also, the Kp at 2 h in data set [2] (10 μmol/kg PO) was 1.9. The concentration at 2 h in data set [2] (setting [5]) worked out at 15 ng/g; in data set [2] (setting [6]), 9 ng/mL.

Regarding `Cc1nc(Nc2cccc3c2CC(O)CC3)oc1-c1ccc(S(F)(F)(F)(F)F)cc1` (stereo not drawn) [Compound 40, 8-({4-methyl-5-[4-(pentafluoro-lambda˜6˜sulfanyl)phenyl]-1,3-oxazol-2-yl}amino)-1,2,3,4-tetrahydronaphthalen-2-ol], in data set [1], the IC50 turned out to be 52 nM. The concentration ratio (Kp) at 2 h in data set [2] (10 μmol/kg PO) is 1.4. For the same compound, the values for the concentration at 2 h in data set [2] (setting [5]) and in data set [2] (setting [6]) were 160 ng/g and 110 ng/mL, respectively.

On to `CCc1nc(Nc2cccc3c2C[C@H](O)CC3)oc1-c1ccc(C(F)(F)F)cc1` [Compound 43, (2R)-8-({4-ethyl-5-[4-(trifluoromethyl)phenyl]-1,3-oxazol-2-yl}amino)-1,2,3,4-tetrahydronaphthalen-2-ol], for which the IC50 in data set [1] is 74 nM. This compound also registered a Kp at 2 h in data set [2] (10 μmol/kg PO) of 2.8. In addition, the concentration at 2 h in data set [2] (setting [5]) worked out at 410 ng/g; in data set [2] (setting [6]), 140 ng/mL.

For the compound `Cc1nc(Nc2cccc3c2CC(O)CO3)oc1-c1ccc(C(F)(F)F)cc1` (stereo not drawn) [Compound 51, 5-({4-methyl-5-[4-(trifluoromethyl)phenyl]-1,3-oxazol-2-yl}amino)chroman-3-ol], the concentration for half-maximal inhibition (IC50) in data set [1] worked out at 618 nM. This compound returned a Kp at 2 h in data set [2] (10 μmol/kg PO) of 2.7. Further, the concentration at 2 h in data set [2] (setting [5]) turned out to be 800 ng/g; in data set [2] (setting [6]), 300 ng/mL.

Turning to `O[C@@H]1CCc2cccc(Nc3nc(C(F)F)c(-c4ccc(C(F)(F)F)cc4)o3)c2C1` [Compound 53, (2R)-8-({4-(difluoromethyl)-5-[4-(trifluoromethyl)phenyl]-1,3-oxazol-2-yl}amino)-1,2,3,4-tetrahydronaphthalen-2-ol], the IC50 in data set [1] was found to be 38 nM. In data set [2] (10 μmol/kg PO), this compound yielded a Kp at 2 h of 3.4. For the same compound, the concentration at 2 h in data set [2] (setting [5]) stood at 930 ng/g; in data set [2] (setting [6]), 270 ng/mL.

Consider `OC1CCc2cccc(Nc3ncc(-c4ccc(C(F)(F)F)cc4)o3)c2C1` (stereo not drawn) [Compound A, 8-({5-[4-(trifluoromethyl)phenyl]-1,3-oxazol-2-yl}amino)-1,2,3,4-tetrahydronaphthalen-2-ol, reference compound], for which, in data set [1], the IC50 was determined as 22 nM. The Kp at 2 h in data set [2] (30 μmol/kg oral) was 0. Also, the results for the concentration at 2 h in data set [2] (setting [3]) and in data set [2] (setting [4]) were 0 ng/g and 0 ng/mL, respectively.
